Results taken from ChEMBL document CHEMBL1201862, “PubChem BioAssay data set” (2004).
Each block holds one compound with its values, some of them ahead of it. The source made the active and inactive calls.

What was measured:
[1] = target: NAD-dependent protein deacylase sirtuin-5, mitochondrial (Homo sapiens, UniProt Q9NXA8); assay: sirtuin-5 deacylation blockers, concentration series – biochemical, fluorescence imaging, cherry-pick, set 5, dose response (AID 720591);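 also: desuccinylation of succinyl peptide AMC substrate read as fluorescence after trypsin release; potency of inhibitors that lower fluorescence and may act on trypsin instead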
[2] = target: Disintegrin and metalloproteinase domain-containing protein 17 (Homo sapiens, UniProt P78536); assay: inhibition of ADAM17 substrate cleavage – biochemical, quenched FRET substrate, counter-screen for ADAM10 exosite inhibitor project, dose response (AID 743253)
[3] = target: T1, Heat shock factor protein 1 (Mus musculus, UniProt P38532); assay: enhancement of HSF1-driven luciferase signal – cell-based, NIH3T3, luminescence, dose retest, confirmation (AID 435004); type: functional;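 also: stress induced by proteasome inhibitor MG132 added 30 min after compound; luciferase reporter driven by HSF1 response element in NIH3T3 cells; actives raise luminescence as potentiators of the MG132 stress response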
T1 sequence (P38532 whole entry): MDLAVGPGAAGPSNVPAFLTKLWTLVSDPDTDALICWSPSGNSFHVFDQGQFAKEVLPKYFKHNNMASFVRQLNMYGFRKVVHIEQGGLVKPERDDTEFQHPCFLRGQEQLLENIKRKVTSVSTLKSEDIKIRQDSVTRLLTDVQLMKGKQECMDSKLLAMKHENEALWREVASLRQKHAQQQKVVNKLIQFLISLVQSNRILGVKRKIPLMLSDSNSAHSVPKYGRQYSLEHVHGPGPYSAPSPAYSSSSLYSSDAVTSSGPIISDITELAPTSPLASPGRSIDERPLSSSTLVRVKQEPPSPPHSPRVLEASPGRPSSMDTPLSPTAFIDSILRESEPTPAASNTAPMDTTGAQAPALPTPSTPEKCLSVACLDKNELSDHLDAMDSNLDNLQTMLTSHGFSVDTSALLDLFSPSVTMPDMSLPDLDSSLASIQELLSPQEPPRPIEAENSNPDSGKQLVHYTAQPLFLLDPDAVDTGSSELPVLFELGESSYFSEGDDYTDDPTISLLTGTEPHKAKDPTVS

[4] = target: T2, Oxysterols receptor LXR-beta (Homo sapiens, UniProt P55055); type: functional, cell-based;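 also: agonist activity at LXR measured by a cell-based luminescence readout across a dose range, run as a counterscreen for daf-12 agonists; HEK293 cells with Gal4-LXR fusion and GAL4-driven luciferase reporter; potency for activation of Gal4-LXR reporter so compounds are agonists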
T2 sequence (P55055 whole entry): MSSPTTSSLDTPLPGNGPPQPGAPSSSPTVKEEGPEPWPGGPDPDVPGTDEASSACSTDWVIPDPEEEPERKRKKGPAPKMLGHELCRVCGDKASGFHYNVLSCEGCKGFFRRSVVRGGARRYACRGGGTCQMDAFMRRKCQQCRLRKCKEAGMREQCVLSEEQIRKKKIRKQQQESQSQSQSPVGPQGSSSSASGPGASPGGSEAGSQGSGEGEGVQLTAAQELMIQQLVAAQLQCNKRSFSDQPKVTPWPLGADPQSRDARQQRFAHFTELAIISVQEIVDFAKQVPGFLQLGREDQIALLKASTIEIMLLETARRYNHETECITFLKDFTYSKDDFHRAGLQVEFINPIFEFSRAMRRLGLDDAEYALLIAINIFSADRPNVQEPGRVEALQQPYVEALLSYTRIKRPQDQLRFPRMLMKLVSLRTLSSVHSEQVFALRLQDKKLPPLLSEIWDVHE

[5] = target: T3, Rac GTPase-activating protein 1 (Homo sapiens, UniProt Q9H0H5); assay: blockers of MgcRacGAP-driven Rac1 GTP hydrolysis – biochemical, ADP Hunter fluorescence, primary and confirmatory, confirmation (AID 624330); type: functional
T3 sequence (Q9H0H5 whole entry): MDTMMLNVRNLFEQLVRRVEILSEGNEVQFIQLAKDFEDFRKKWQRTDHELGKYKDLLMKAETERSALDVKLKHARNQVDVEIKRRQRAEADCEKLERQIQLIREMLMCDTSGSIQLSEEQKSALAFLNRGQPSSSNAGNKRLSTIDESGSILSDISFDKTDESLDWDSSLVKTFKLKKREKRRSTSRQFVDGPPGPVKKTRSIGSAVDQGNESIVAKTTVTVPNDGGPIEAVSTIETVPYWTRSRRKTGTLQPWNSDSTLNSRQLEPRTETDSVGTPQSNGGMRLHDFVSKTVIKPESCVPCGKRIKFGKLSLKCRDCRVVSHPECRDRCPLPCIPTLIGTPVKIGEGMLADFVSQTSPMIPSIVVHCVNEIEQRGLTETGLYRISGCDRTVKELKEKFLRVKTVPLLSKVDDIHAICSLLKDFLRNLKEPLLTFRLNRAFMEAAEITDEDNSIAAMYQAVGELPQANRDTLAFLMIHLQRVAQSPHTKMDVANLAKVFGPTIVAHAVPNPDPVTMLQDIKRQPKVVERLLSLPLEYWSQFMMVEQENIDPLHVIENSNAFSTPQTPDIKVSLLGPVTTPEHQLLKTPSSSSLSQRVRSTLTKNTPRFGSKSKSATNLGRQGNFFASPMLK

[6] = potency of ADAM10 substrate cleavage blockers – biochemical, QFRET, dose response (AID 743254);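 also: ADAM10 enzyme with the DM2 quenched FRET peptide as substrate; EDANS fluorescence gain as the protease cuts the substrate; inhibitor potency against ADAM10 proteolytic activity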
Paired box protein Pax-8 = Paired box protein Pax-8 (Homo sapiens, UniProt Q06710); assay: PAX8 transcriptional activity inhibition in RMG-I – RMG-I cells, luciferase, cherry-pick, dose response (AID 687027); type: functional, cell-based;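 also: luciferase reporter driven by Pax8 target thyroperoxidase promoter measured by SteadyGlo luminescence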
[7] = inhibitors acting on PAX2 in cells – cell-based, plate reader, dry powder samples, selectivity assay for PAX8 inhibitor project, dose response (AID 743048); type: functional;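 also: HEK293 cells carrying a WT1 promoter luciferase reporter driven by expressed Pax2; potency is for inhibition of Pax2 driven reporter signal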
[8] = COV362 cell viability loss – plate reader, dry powder, SA12, cytotoxicity control for PAX8 inhibitor project, dose response (AID 743144); type: functional, cell-based
[9] = toxicity toward immortalized ovarian surface epithelium – cell-based, plate reader, dry powder samples, cytotoxicity control for PAX8 inhibitor project, dose response (AID 743045); type: functional
[10] = OVCAR-3 cell viability loss – plate reader, dry powder samples, PAX8 inhibitor project, dose response (AID 743044); type: functional, cell-based
[11] = PAX5 cellular inhibition readout – cell-based, plate reader, dry powder samples, selectivity assay for PAX8 inhibitor project, dose response (AID 743047); type: functional;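 also: HEK293 cells carrying a Pax5 driven CD19 promoter luciferase reporter; potency of inhibitors that lower reporter luminescence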
[12] = IGROV1 cell killing – plate reader, dry powder samples, PAX8 inhibitor project, dose response (AID 743043); type: functional, cell-based; settings: IGROV-1
[13] = OVCAR4 cell viability loss – plate reader, dry powder, SA11, cytotoxicity control for PAX8 inhibitor project, dose response (AID 743150); type: functional, cell-based; settings: OVCAR-4
[14] = COV434 cell viability loss – plate reader, dry powder, SA7, cytotoxicity control for PAX8 inhibitor project, dose response (AID 743145); type: functional, cell-based
[15] = OV-90 cell viability loss – plate reader, dry powder, SA8, PAX8 inhibitor project, dose response (AID 743149); type: functional, cell-based
[16] = OVCAR8 cell viability loss – plate reader, dry powder samples, PAX8 project, dose response (AID 743197); type: functional, cell-based; settings: OVCAR-8
[17] = PAX8-dependent cell viability loss – plate reader, dry powder, dose response (AID 743049); type: functional, cell-based
[18] = growth inhibition of yeast DHODH-expressing 3D7 parasites – SYBR Green, dry powder samples, dose response (AID 1159570); type: functional, cell-based;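 also: parasite growth measured after 72 hours of compound exposure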
[19] = toxicity to human HepG2 hepatoma cells – cell-based, plate reader, dry powder samples, cytotoxicity control, dose response (AID 1159569); type: functional;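 also: inhibitor potency with signal falling toward the positive control level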
[20] = P. falciparum Dd2 growth inhibitors, dose response, SYBR Green, cherry-picked samples (AID 1159567); type: functional, cell-based
[21] = Dd2 malaria parasite growth inhibition potency – SYBR Green, dry powder samples, dose response (AID 1159566); type: functional, cell-based;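 also: potency for growth inhibition with lower SYBR green DNA signal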
[22] = toxicity to human hepatoma HepG2 cells – cell-based, cherry-picked samples, cytotoxicity control, dose response (AID 1159577); type: functional
[23] = growth inhibition of PfATP4-mutant resistant parasites – NITD609-resistant line, SYBR Green, dry powder, dose response (AID 1159571); type: functional, cell-based;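 also: parasites synchronized at ring stage by sorbitol before testing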
[24] = target: Potassium channel subfamily K member 9 (Homo sapiens, UniProt Q9NPC2); assay: KCNK9 flux blockade, concentration-response – cell-based, FluxOR thallium flux, selectivity assay for TASK1 inhibitor project, SAR follow-up (AID 652211); type: functional;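 also: potency is for inhibitors of the channel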
[25] = target: Potassium channel subfamily K member 3 (Homo sapiens, UniProt O14649); assay: inhibition of human KCNK3 channel flux – CHO cells, FluxOR thallium flux, SAR follow-up (AID 652212); type: functional
Potassium channel subfamily K member 3, sequence (O14649 whole entry): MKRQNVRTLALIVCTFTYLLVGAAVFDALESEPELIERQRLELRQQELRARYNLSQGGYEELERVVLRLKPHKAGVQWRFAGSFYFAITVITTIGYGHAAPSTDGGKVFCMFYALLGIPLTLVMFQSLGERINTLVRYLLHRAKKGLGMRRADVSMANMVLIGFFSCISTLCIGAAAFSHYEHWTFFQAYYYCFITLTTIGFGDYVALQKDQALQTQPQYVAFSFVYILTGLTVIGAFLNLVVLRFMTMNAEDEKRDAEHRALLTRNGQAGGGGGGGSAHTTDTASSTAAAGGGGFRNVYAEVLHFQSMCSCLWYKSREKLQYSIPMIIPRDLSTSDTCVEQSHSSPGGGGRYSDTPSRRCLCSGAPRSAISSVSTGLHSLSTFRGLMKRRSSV

NAD-dependent protein deacylase sirtuin-5, mitochondrial, sequence (Q9NXA8 whole entry, the tested form may be a part): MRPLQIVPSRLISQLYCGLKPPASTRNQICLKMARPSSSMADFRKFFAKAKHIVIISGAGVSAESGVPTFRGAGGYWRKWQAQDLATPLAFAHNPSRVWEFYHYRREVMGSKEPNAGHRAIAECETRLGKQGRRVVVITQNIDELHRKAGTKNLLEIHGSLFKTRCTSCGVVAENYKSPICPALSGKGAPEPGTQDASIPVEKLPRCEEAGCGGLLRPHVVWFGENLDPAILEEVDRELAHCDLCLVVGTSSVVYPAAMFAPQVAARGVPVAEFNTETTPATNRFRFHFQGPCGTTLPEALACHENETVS
Disintegrin and metalloproteinase domain-containing protein 17, sequence (P78536 whole entry, the tested form may be a part): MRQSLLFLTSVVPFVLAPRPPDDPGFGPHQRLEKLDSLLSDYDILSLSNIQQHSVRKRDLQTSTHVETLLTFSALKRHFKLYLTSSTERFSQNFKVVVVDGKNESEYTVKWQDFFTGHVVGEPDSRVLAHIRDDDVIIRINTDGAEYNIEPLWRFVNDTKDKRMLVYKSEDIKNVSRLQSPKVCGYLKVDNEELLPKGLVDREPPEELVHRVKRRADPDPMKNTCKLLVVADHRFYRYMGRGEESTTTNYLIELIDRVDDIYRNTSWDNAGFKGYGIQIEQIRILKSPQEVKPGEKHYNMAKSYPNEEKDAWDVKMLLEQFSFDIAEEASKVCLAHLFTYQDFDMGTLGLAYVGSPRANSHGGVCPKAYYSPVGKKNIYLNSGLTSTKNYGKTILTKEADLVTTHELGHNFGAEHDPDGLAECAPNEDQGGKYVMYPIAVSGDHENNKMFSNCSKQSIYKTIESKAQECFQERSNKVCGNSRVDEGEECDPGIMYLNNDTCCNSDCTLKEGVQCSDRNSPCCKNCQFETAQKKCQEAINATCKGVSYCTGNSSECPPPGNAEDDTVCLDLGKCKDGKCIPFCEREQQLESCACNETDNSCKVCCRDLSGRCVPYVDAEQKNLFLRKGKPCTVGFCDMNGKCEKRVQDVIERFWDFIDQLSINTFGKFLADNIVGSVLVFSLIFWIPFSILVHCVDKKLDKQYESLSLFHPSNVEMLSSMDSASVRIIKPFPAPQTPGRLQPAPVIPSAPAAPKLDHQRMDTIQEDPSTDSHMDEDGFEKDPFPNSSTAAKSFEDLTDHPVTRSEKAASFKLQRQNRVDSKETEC
Potassium channel subfamily K member 9, sequence (Q9NPC2 whole entry): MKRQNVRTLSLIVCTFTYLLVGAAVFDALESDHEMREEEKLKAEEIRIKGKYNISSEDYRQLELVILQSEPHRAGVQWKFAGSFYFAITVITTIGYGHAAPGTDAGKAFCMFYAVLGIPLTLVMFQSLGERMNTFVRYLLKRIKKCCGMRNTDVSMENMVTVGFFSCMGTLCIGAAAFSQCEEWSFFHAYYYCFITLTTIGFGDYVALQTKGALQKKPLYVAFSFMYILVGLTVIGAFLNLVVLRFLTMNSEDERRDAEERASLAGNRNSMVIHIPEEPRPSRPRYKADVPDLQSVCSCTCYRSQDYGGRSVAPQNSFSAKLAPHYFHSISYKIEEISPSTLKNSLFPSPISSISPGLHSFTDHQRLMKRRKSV
Paired box protein Pax-8, sequence (Q06710 whole entry): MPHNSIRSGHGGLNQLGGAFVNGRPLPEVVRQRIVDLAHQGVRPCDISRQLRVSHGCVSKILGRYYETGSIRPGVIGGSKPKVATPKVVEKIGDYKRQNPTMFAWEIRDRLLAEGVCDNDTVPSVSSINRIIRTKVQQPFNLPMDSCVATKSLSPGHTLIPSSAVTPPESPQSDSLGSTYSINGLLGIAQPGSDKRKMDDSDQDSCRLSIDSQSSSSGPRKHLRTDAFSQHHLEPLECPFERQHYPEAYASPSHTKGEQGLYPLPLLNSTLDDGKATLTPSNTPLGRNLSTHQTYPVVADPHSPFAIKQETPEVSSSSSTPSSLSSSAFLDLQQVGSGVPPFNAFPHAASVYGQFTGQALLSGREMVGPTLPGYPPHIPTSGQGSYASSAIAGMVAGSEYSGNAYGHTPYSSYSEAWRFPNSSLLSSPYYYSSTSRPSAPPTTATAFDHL

SMILES: Cc1cc(NC(=O)CSc2nc3c(cc2C#N)CCC3)no1
EC50 [3]: 830 nM (active) | EC50 [4]: > 67.6 µM (inactive)

SMILES: CC1(Cc2ccc(C(F)(F)F)o2)C(=O)Nc2ccc(-c3cccc(C(F)(F)F)c3)cc21 (centres undefined)
IC50 [6]: 11.3 µM (inactive) | IC50 [2]: > 69.6 µM (inactive)

SMILES: COc1ccccc1C#Cc1ccc([C@H]2[C@@H](CO)N(C(=O)C3CCCCC3)[C@H]2C#N)cc1
AC50 (Paired box protein Pax-8): 3.4 µM (active) | AC50 [7]: 9.82 µM (active) | AC50 [8]: 36.4 µM (active) | AC50 [9]: 42.5 µM (active) | AC50 [10]: 18.9 µM (active) | AC50 [11]: 6.15 µM (active) | AC50 [12]: 44.8 µM (active) | AC50 [13]: 63.6 µM (active) | AC50 [14]: 20.6 µM (active) | AC50 [15]: 28.6 µM (active) | AC50 [16]: 60.8 µM (active) | AC50 [17]: 12.2 µM (active) | AC50 [18]: 1.19 µM (active) | AC50 [19]: 35.2 µM (active) | AC50 [20]: 1.36 µM (active) | AC50 [21]: 684 nM (active) | AC50 [22]: > 39 µM (inactive) | AC50 [23]: 1.53 µM (active)

Further lines, results first:

AC50 [1]: > 30 µM (inactive)
SMILES: CCc1ccccc1-n1c(SCC(=O)NC)nnc1-c1ccco1

IC50 [2]: > 69.5 µM (inactive)
SMILES: CCc1ccc(-c2cn(C3CCCCC3)c(=S)[nH]2)cc1

IC50 [5]: 8.46 µM (active) | EC50 [4]: > 67.4 µM (inactive)
SMILES: Nc1ccc2c(c1)Cc1cc(N)c(Cl)cc1-2

AC50 [1]: > 30 µM (inactive)
SMILES: CC(C)(C)c1ccc(S(=O)(=O)NC(=O)C2(C)CCN2C(=O)C2CCCCC2)cc1 (centres undefined)

IC50 [24]: 30.5 µM (active) | IC50 [25]: 1.32 µM (active)
SMILES: CCOc1ccccc1NC(=O)c1cccc(NC(=O)C(C)(C)C)c1
